From ChEMBL document CHEMBL5370535, “Thiazolyl hydrazineylidenyl indolones as unique potential multitargeting broad-spectrum antimicrobial agents” (Eur J Med Chem, 2023)
In brackets after ≈: the same amount, converted by molar mass.

Columns and labels:
Format in all cases: functional
Candida albicans [1] = assay: Antifungal activity against Candida albicans ATCC 90023 assessed as inhibition of fungal growth incubated for 24 hrs by CLSI based two serial dilution assay
Pseudomonas aeruginosa [2] = assay: Antibacterial activity against Pseudomonas aeruginosa ATCC 27853 assessed as bacterial growth inhibition incubated for 24 hrs by CLSI based two serial dilution assay
Enterococcus faecalis = assay: Antibacterial activity against Enterococcus faecalis assessed as bacterial growth inhibition incubated for 24 hrs by CLSI based two serial dilution assay
Klebsiella pneumoniae = assay: Antibacterial activity against Klebsiella pneumoniae assessed as bacterial growth inhibition incubated for 24 hrs by CLSI based two serial dilution assay
Staphylococcus aureus [3] = assay: Antibacterial activity against Staphylococcus aureus 29213 assessed as bacterial growth inhibition incubated for 24 hrs by CLSI based two serial dilution assay
Candida parapsilosis = assay: Antifungal activity against Candida parapsilosis ATCC 22019 assessed as inhibition of fungal growth incubated for 24 hrs by CLSI based two serial dilution assay; conditions: Lodderomyces parapsilosis
Pseudomonas aeruginosa [4] = assay: Antibacterial activity against Pseudomonas aeruginosa assessed as bacterial growth inhibition incubated for 24 hrs by CLSI based two serial dilution assay
Escherichia coli [5] = assay: Antibacterial activity against Escherichia coli 25922 assessed as bacterial growth inhibition incubated for 24 hrs by CLSI based two serial dilution assay
Escherichia coli [6] = assay: Antibacterial activity against Escherichia coli assessed as bacterial growth inhibition incubated for 24 hrs by CLSI based two serial dilution assay
Staphylococcus aureus [7] = assay: Antibacterial activity against methicillin-resistant Staphylococcus aureus assessed as bacterial growth inhibition incubated for 24 hrs by CLSI based two serial dilution assay
Acinetobacter baumannii = assay: Antibacterial activity against Acinetobacter baumannii assessed as bacterial growth inhibition incubated for 24 hrs by CLSI based two serial dilution assay
Aspergillus fumigatus = assay: Antifungal activity against Aspergillus fumigatus assessed as inhibition of fungal growth incubated for 24 hrs by CLSI based two serial dilution assay
Staphylococcus aureus [8] = assay: Antibacterial activity against Staphylococcus aureus 25923 assessed as bacterial growth inhibition incubated for 24 hrs by CLSI based two serial dilution assay
Staphylococcus aureus [9] = assay: Antibacterial activity against Staphylococcus aureus assessed as bacterial growth inhibition incubated for 24 hrs by CLSI based two serial dilution assay
Candida tropicalis = assay: Antifungal activity against Candida tropicalis assessed as inhibition of fungal growth incubated for 24 hrs by CLSI based two serial dilution assay
Candida albicans [10] = assay: Antifungal activity against Candida albicans assessed as inhibition of fungal growth incubated for 24 hrs by CLSI based two serial dilution assay

SMILES | MIC (Candida albicans [1]) [µM] | MIC (Pseudomonas aeruginosa [2]) [µM] | MIC (Enterococcus faecalis) [µM] | MIC (Klebsiella pneumoniae) [µM] | MIC (Staphylococcus aureus [3]) [µM] | MIC (Candida parapsilosis) [µM] | MIC (Pseudomonas aeruginosa [4]) [µM] | MIC (Escherichia coli [5]) [µM] | MIC (Escherichia coli [6]) [µM] | MIC (Staphylococcus aureus [7]) [µM] | MIC (Acinetobacter baumannii) [µM] | MIC (Aspergillus fumigatus) [µM] | MIC (Staphylococcus aureus [8]) [µM] | MIC (Staphylococcus aureus [9]) [µM] | MIC (Candida tropicalis) [µM] | MIC (Candida albicans [10]) [µM]
O=C1/C(=N\Nc2nccs2)c2ccccc2N1Cc1ccc(F)cc1 | 128 (≈ 45.1 µg/mL) | 4 (≈ 1.41 µg/mL) | 2 (≈ 0.705 µg/mL) | 16 (≈ 5.64 µg/mL) | 4 (≈ 1.41 µg/mL) | 64 (≈ 22.6 µg/mL) | 16 (≈ 5.64 µg/mL) | 16 (≈ 5.64 µg/mL) | 16 (≈ 5.64 µg/mL) | 128 (≈ 45.1 µg/mL) | 16 (≈ 5.64 µg/mL) | 128 (≈ 45.1 µg/mL) | 4 (≈ 1.41 µg/mL) | 64 (≈ 22.6 µg/mL) | 32 (≈ 11.3 µg/mL) | 32 (≈ 11.3 µg/mL)
O=C1/C(=N\Nc2nccs2)c2ccccc2N1Cc1cccc(F)c1 | 32 (≈ 11.3 µg/mL) | 128 (≈ 45.1 µg/mL) | 8 (≈ 2.82 µg/mL) | 256 (≈ 90.2 µg/mL) | 4 (≈ 1.41 µg/mL) | 32 (≈ 11.3 µg/mL) | 128 (≈ 45.1 µg/mL) | 256 (≈ 90.2 µg/mL) | 512 (≈ 180 µg/mL) | 64 (≈ 22.6 µg/mL) | 256 (≈ 90.2 µg/mL) | 128 (≈ 45.1 µg/mL) | 16 (≈ 5.64 µg/mL) | 4 (≈ 1.41 µg/mL) | 16 (≈ 5.64 µg/mL) | 64 (≈ 22.6 µg/mL)
CCCCN1C(=O)/C(=N\Nc2nccs2)c2cc(Br)ccc21 | 64 (≈ 24.3 µg/mL) | 256 (≈ 97.1 µg/mL) | 32 (≈ 12.1 µg/mL) | 256 (≈ 97.1 µg/mL) | 16 (≈ 6.07 µg/mL) | 32 (≈ 12.1 µg/mL) | 8 (≈ 3.03 µg/mL) | 16 (≈ 6.07 µg/mL) | 16 (≈ 6.07 µg/mL) | 16 (≈ 6.07 µg/mL) | 16 (≈ 6.07 µg/mL) | 16 (≈ 6.07 µg/mL) | 32 (≈ 12.1 µg/mL) | 64 (≈ 24.3 µg/mL) | 64 (≈ 24.3 µg/mL) | 32 (≈ 12.1 µg/mL)
CCCCN1C(=O)/C(=N\Nc2nccs2)c2ccc(Cl)cc21 | 2 (≈ 0.67 µg/mL) | 4 (≈ 1.34 µg/mL) | 2 (≈ 0.67 µg/mL) | 0.5 (≈ 0.167 µg/mL) | 4 (≈ 1.34 µg/mL) | 0.5 (≈ 0.167 µg/mL) | 0.5 (≈ 0.167 µg/mL) | 4 (≈ 1.34 µg/mL) | 1 (≈ 0.335 µg/mL) | 0.5 (≈ 0.167 µg/mL) | 0.5 (≈ 0.167 µg/mL) | 1 (≈ 0.335 µg/mL) | 0.5 (≈ 0.167 µg/mL) | 1 (≈ 0.335 µg/mL) | 1 (≈ 0.335 µg/mL) | 0.5 (≈ 0.167 µg/mL)
CCCCN1C(=O)/C(=N\Nc2nccs2)c2cc(C)ccc21 | 4 (≈ 1.26 µg/mL) | 32 (≈ 10.1 µg/mL) | 32 (≈ 10.1 µg/mL) | 2 (≈ 0.629 µg/mL) | 2 (≈ 0.629 µg/mL) | 1 (≈ 0.314 µg/mL) | 16 (≈ 5.03 µg/mL) | 4 (≈ 1.26 µg/mL) | 4 (≈ 1.26 µg/mL) | 4 (≈ 1.26 µg/mL) | 2 (≈ 0.629 µg/mL) | 2 (≈ 0.629 µg/mL) | 8 (≈ 2.52 µg/mL) | 4 (≈ 1.26 µg/mL) | 2 (≈ 0.629 µg/mL) | 4 (≈ 1.26 µg/mL)
CCN1C(=O)/C(=N\Nc2nccs2)c2ccccc21 | 128 (≈ 34.9 µg/mL) | 512 (≈ 139 µg/mL) | 32 (≈ 8.71 µg/mL) | 64 (≈ 17.4 µg/mL) | 16 (≈ 4.36 µg/mL) | 64 (≈ 17.4 µg/mL) | 2 (≈ 0.545 µg/mL) | 64 (≈ 17.4 µg/mL) | 32 (≈ 8.71 µg/mL) | 32 (≈ 8.71 µg/mL) | 512 (≈ 139 µg/mL) | 32 (≈ 8.71 µg/mL) | 64 (≈ 17.4 µg/mL) | 64 (≈ 17.4 µg/mL) | 64 (≈ 17.4 µg/mL) | 64 (≈ 17.4 µg/mL)
CCCCN1C(=O)/C(=N\Nc2nccs2)c2cc([N+](=O)[O-])ccc21 | 512 (≈ 177 µg/mL) | 512 (≈ 177 µg/mL) | 512 (≈ 177 µg/mL) | 512 (≈ 177 µg/mL) | 512 (≈ 177 µg/mL) | 512 (≈ 177 µg/mL) | 512 (≈ 177 µg/mL) | 512 (≈ 177 µg/mL) | 512 (≈ 177 µg/mL) | 512 (≈ 177 µg/mL) | 0.5 (≈ 0.173 µg/mL) | 512 (≈ 177 µg/mL) | 512 (≈ 177 µg/mL) | 512 (≈ 177 µg/mL) | 512 (≈ 177 µg/mL) | 512 (≈ 177 µg/mL)
CCCCN1C(=O)/C(=N\Nc2nccs2)c2cc(Br)cc(Br)c21 | 1 (≈ 0.458 µg/mL) | 512 (≈ 235 µg/mL) | 0.5 (≈ 0.229 µg/mL) | 0.5 (≈ 0.229 µg/mL) | 16 (≈ 7.33 µg/mL) | 128 (≈ 58.6 µg/mL) | 1 (≈ 0.458 µg/mL) | 1 (≈ 0.458 µg/mL) | 1 (≈ 0.458 µg/mL) | 1 (≈ 0.458 µg/mL) | 512 (≈ 235 µg/mL) | 512 (≈ 235 µg/mL) | 0.5 (≈ 0.229 µg/mL) | 16 (≈ 7.33 µg/mL) | 1 (≈ 0.458 µg/mL) | 0.5 (≈ 0.229 µg/mL)
